The molecules below were run on RAW264.7 (assay: Antiinflammatory activity against mouse RAW264.7 cells assessed as inhibition of HMGB1-induced NO production pretreated with compounds for 15 mins followed by HMGB1 stimulation measured after 24 hrs by Griess reagent based assay).
Assay type: functional, cell-based

Q: For `CC(O)(CO)[C@@H]1CC[C@]2(C)[C@H](CC=C3[C@@H]4C[C@@](C)(CO)C[C@@H](O)[C@]4(C)CC[C@]32C)[C@@]1(C)CCC(=O)O` (some centres not stated), which IC50 is on record?
A: > 100 µM

Q: With `C=C(C)[C@@H]1CC[C@]2(C(=O)O)CC[C@]3(C)[C@H](CC[C@@H]4[C@@](C)(CCC(=O)OC)[C@H](C(C)(C)O)CC[C@]43C)[C@@H]12` as the molecule, how does the IC50 read?
A: > 100 µM

Q: How did the IC50 turn out when `CC1(C)C[C@H]2C3=CC[C@@H]4[C@@](C)(CCC(=O)O)[C@H]([C@](C)(O)CO)CC[C@@]4(C)[C@]3(C)CC[C@@]2(C)[C@H](O)[C@@H]1O` was run?
A: > 100 µM

Q: How did the IC50 turn out when `C=C(CO)[C@@H]1CC[C@]2(C(=O)O)CC[C@]3(C)[C@H](CC[C@@H]4[C@@](C)(CCC(=O)O)[C@H](C(C)(C)O)CC[C@]43C)[C@@H]12` was run?
A: > 100 µM

Q: For `COC(=O)CC[C@@]1(C)[C@H]([C@](C)(O)CO)CC[C@]2(C)[C@@H]1CC=C1[C@@H]3C[C@@](C)(CO)C[C@@H](O)[C@]3(C)CC[C@]12C`, which IC50 is on record?
A: > 100 µM

Q: `C=C(C)[C@@H]1CC[C@]2(C(=O)O)CC[C@]3(C)[C@H](CC[C@@H]4[C@@](C)(CCC(=O)O)[C@H](C(C)(C)O)CC[C@]43C)[C@@H]12` was tested. Which IC50 did it give?
A: > 100 µM

Q: `CC1(C)C[C@H]2C3=CC[C@@H]4[C@@](C)(CCC(=O)O)[C@H]([C@](C)(O)CO)CC[C@@]4(C)[C@]3(C)C[C@@H](O)[C@@]2(CO)[C@@H](O)[C@@H]1O` was tested. Which IC50 did it give?
A: > 100 µM

Q: `C[C@@]1(CO)C[C@H]2C3=CC[C@@H]4[C@@](C)(CCC(=O)O)[C@H]([C@](C)(O)CO)CC[C@@]4(C)[C@]3(C)CC[C@@]2(C)[C@H](O)[C@@H]1O` was tested. Which IC50 did it give?
A: > 100 µM

Q: With `CC1(C)C[C@H]2C3=CC[C@@H]4[C@@](C)(CCC(=O)O)[C@H]([C@](C)(O)CO)CC[C@@]4(C)[C@]3(C)CC[C@@]2(C)[C@H](O)[C@H]1O` as the molecule, how does the IC50 read?
A: 15.9 µM

Q: How did the IC50 turn out when `CC1(C)C[C@@H](O)[C@]2(C)CC[C@]3(C)C(=CC[C@@H]4[C@@](C)(CCC(=O)O)[C@H]([C@](C)(O)CO)CC[C@]43C)[C@@H]2C1` was run?
A: > 100 µM

Q: With `C=C(CO)[C@@H]1CC[C@]2(C(=O)O)CC[C@]3(C)[C@H](CC[C@@H]4[C@@](C)(CCC(=O)OC)[C@H](C(C)(C)O)CC[C@]43C)[C@@H]12` as the molecule, how does the IC50 read?
A: > 100 µM

Q: Which IC50 does the source give for `C[C@@]1(CO)C[C@@H](O)[C@]2(C)CC[C@]3(C)C(=CC[C@@H]4[C@@](C)(CCC(=O)O)[C@H]([C@](C)(O)CO)CC[C@]43C)[C@@H]2C1` here?
A: > 100 µM

Q: For `C[C@]1(CO)C[C@H]2C3=CC[C@@H]4[C@@](C)(CCC(=O)O)[C@H]([C@](C)(O)CO)CC[C@@]4(C)[C@]3(C)CC[C@@]2(C)[C@H](O)[C@@H]1O`, which IC50 is on record?
A: 36 µM

Q: For `C=C(C)[C@@H]1CC[C@]2(C(=O)O)CC[C@]3(C)[C@H](CC[C@@H]4[C@@]5(C)CC[C@H](O)C(C)(C)[C@@H]5CC[C@]43C)[C@@H]12` [BETULINIC ACID], which IC50 is on record?
A: > 100 µM

Q: `CC1(C)[C@@H](OC(=O)CCC(=O)O)CC[C@]2(C)[C@H]3C(=O)C=C4[C@@H]5C[C@@](C)(C(=O)O)CC[C@]5(C)CC[C@@]4(C)[C@]3(C)CC[C@@H]12` [CARBENOXOLONE] was tested. Which IC50 did it give?
A: 11.4 µM

Q: For `CC1(C)C[C@H]2C3=CC[C@@H]4[C@@]5(C)CC[C@H](O)[C@](C)(CO)[C@@H]5CC[C@@]4(C)[C@]3(C)CC[C@@]2(C)[C@H](O)[C@@H]1O` [SOYASAPOGENOL A], which IC50 is on record?
A: > 100 µM

Q: Which IC50 does the source give for `CC1(C)C[C@@H](O)[C@]2(C)CC[C@]3(C)C(=CC[C@@H]4[C@@]5(C)CC[C@H](O)[C@](C)(CO)[C@@H]5CC[C@]43C)[C@@H]2C1` [SOYASAPOGENOL B] here?
A: > 100 µM

From ChEMBL document CHEMBL5053544, “Microbial transformation of pentacyclic triterpenes for anti-inflammatory agents on the HMGB1 stimulated RAW 264.7 cells by Streptomyces olivaceus CICC 23628” (Bioorg Med Chem, 2021)
